Assay [1] deals with T1, XDH (xylitol dehydrogenase, xdh1) (Trichoderma reesei, UniProt Q876R2).
T1 construct: cell-free extract
T1 sequence (Q876R2 1-363): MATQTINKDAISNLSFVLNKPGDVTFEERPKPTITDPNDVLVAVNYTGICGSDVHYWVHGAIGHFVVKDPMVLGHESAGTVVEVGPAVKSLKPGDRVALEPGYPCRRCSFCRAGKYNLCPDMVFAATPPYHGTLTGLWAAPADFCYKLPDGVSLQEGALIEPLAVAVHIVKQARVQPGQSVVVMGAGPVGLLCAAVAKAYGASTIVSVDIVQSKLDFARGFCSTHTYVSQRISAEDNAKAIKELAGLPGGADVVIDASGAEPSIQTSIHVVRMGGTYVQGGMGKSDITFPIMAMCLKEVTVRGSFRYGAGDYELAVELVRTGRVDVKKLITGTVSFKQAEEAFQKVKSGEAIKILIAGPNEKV
Description: NAD+ reduction at […] nm in cell-free extract of expressing yeast. The note with it: 0.15 M xylitol, 0.4 mM NAD+, 25 mM potassium phosphate pH 7.0. It counts as biochemical.

For assay [2], the target named is T2, XR (xylose reductase, xyl1) (Trichoderma reesei, UniProt Q876L8).
T2 construct: cell-free extract
T2 sequence (Q876L8 1-324): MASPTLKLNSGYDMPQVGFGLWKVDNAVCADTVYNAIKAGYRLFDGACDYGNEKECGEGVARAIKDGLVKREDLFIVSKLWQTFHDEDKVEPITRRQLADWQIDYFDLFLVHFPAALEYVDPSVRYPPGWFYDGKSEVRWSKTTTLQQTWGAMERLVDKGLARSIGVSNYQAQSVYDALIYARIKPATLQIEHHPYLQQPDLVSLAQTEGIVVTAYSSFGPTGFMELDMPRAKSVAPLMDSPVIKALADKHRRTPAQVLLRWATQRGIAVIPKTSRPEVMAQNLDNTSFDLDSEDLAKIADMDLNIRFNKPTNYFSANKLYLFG
Description: NADPH oxidation at […] nm in cell-free extract of expressing yeast. It counts as biochemical. The note with it: 50 mM xylose, 0.34 mM NADPH, 25 mM potassium phosphate pH 7.0, 30 C.

With `NC(=O)c1ccc[n+]([C@@H]2O[C@H](COP(=O)(O)OP(=O)(O)OC[C@H]3O[C@@H](n4cnc5c(N)ncnc54)[C@H](O)[C@@H]3O)[C@@H](O)[C@H]2O)c1` [NAD^+], the “NAD+ reduction at 340 nm in cell-free extract of expressing yeast” value in assay [1] is given as “measuring the reduction of nicotinamide adenine dinucleotide (NAD^+) to NADH”.
Take `NC(=O)C1=CN([C@@H]2O[C@H](COP(=O)(O)OP(=O)(O)OC[C@H]3O[C@@H](n4cnc5c(N)ncnc54)[C@H](OP(=O)(O)O)[C@@H]3O)[C@@H](O)[C@H]2O)C=CC1` [NADPH]: the “NADPH oxidation at 340 nm in cell-free extract of expressing yeast” value in assay [2] is listed as “measuring the oxidation of the reduced form of nicotinamide adenine dinucleotide phosphate (NADPH)”.
